# Assay results reported in patent US20100197712A1, “USE OF DOPAMINE STABILIZERS” (priority 2007, published 2010).
# What was measured:
# [1] = biological target: T1, human D2l receptors (Homo sapiens, UniProt P14416); assay: Incorporation of GTPgammaS^35 in CHO-hD2l membranes; format: biochemical
# T1 construct: expressed in transfected cells; host or cells: CHO (CHO-hD2l cells), membrane preparation
# Protocol: Membranes were stored at −80° C. at a concentration of 1 mg protein/ml buffer.
# Dopamine-stimulated GTPgammaS^35 incorporation was determined using the following procedure: in a buffer containing 20 mM HEPES, 5 mM Mg Cl2, 100 mM NaCl, at pH 7.5, membranes ([…]) were incubated with vehicle, drugs and 3 μM GDP for 30 min at 30° C., total volume was 1.1 ml. […] The reaction was stopped by filtering the samples with a Brandel harvester on Whatmann GF/B filters. Filters were placed in liquid scintillation vials containing 10 ml of BCS scintillation fluid and counted the next day. All samples were run in triplicate.
# [2] = system: active rats; assay: Video tracking: motor activity (velocity) of active rats; format: in vivo, Sprague-Dawley rats; settings: i.p., 30 min prior to 30 min tracking
# Protocol: (§1) Prior to testing, the rats were housed for approximately 1 week with free access to food and water, in groups of four or five in Macrolon type III cages in the animal facility of the Sahlgrenska Academy at Göteborg University. The experiments were approved by the animal ethics committee in Göteborg.
# (§2) OSU6162, ACR16, apomorphine and (−)-3-PPP were dissolved in 0.9% saline. A few grains of ascorbic acid were added to apomorphine solutions to prevent oxidation of the drug. Haloperidol and amisulpride were dissolved in a minimum amount of acetic acid and diluted with 5.5% glucose. The solutions were adjusted to pH 5-7 with sodium bicarbonate. Aripiprazole was dissolved in a minimum amount of heated acetic acid, diluted in warm 5.5% glucose and adjusted to pH 4-5. All drugs were administered intraperitoneally (i.p.) or subcutaneously (s.c.) in volumes of 5 ml/kg. Control treatments consisted of the appropriate vehicle administered in accordance with the drug treatment at issue.
# (§3) The rats were housed in reverse daylight cycle and all handling of the animals was performed in dim light. Apomorphine was administered s.c. 5 minutes prior to testing, while all other drugs were injected i.p. or s.c. 30 minutes before testing. Single rats were introduced into rectangular arenas (l/w/h: 150×100×40 cm) illuminated indirectly by one infrared lamp (Neocom, South Korea). The rats' movements were recorded to digital (MPEG2) video files using an IR sensitive video camera (Panasonic WV-CPR480, lens: Panasonic LA-408C3) connected to a PC equipped with a MPEG-encoder (MVR1000^SX, Canopus Co.). […] Behavioural variables were extracted from the tracks in MatLab (The MathWorks, Inc., USA) with functions developed in this laboratory. Mean velocity was used to measure motor activity. Prior to calculation of velocity the tracks were subjected to a running mean filter, i.e. each sample was replaced by the mean of fifteen consecutive samples.
# (§4) In several cases data from two or more experiments have been pooled. […] Confirmed outlying values (N=0-3 per experiment) were excluded from statistical analyses and graphical presentations. Data from the video tracking setting was analyzed with univariate general linear model (GLM). Following GLM analysis, comparisons versus the appropriate control groups were performed with Dunnet's post hoc test. […] Data obtained from activity boxes was analyzed with Kruskal-Wallis one-way analysis of variance by ranks. […] All statistical tests were two sided and p<0.05 was considered statistically significant.
# [3] = system: habituated rats; assay: Motor activity of habituated rats in activity boxes; format: in vivo, Sprague-Dawley rats; settings: s.c.
# Protocol: as §1, §2
# Rats were housed in a normal daylight cycle and testing was performed during daytime. Animals were introduced into sound attenuated, illuminated activity boxes (1/w/h: 40×40×20 cm) and were allowed to habituate in the new environment for 65 minutes. During the following 5 minutes test drugs were injected s.c., after which the rats were returned to the boxes for another 60 minutes. Five by five rows of photocell beams at floor level allowed a computer based-system to register horizontal activity. Motor activity is presented as accumulated number of unrepeated beam breaks, i.e. several consecutive breakings of one beam is counted as one beam break. The software was set to register behaviour from the rat's first introduction into the arena until it was finally removed from the box, i.e. for 130 minutes. Activity is presented separately for t=0-30 min and t=30-60 min after injection.
# as §4
# [4] = system: apomorphine induced hypomotility in rats; assay: Apomorphine induced hypomotility in rats (video tracking); format: in vivo, Sprague-Dawley rats; settings: apomorphine 0.16 μmol/kg s.c.
# Protocol: FIG. 7. […] Test drugs were administered 30 minutes prior to registration. Motor activity was measured for 30 minutes as velocity in the video tracking setting. Statistical comparisons were made versus the apomorphine group with univariate general linear model, followed by Dunnet's post hoc test. *p<0.05; *p<0.01; ***p<0.001. FIG. 8.
# as §3, §4
# [5] = system: mice pretreated with reserpine and alpha-methylpara-tyrosine; assay: Mouse model of Parkinsonism (reserpine and alpha-methyl-para-tyrosine pretreated mice); format: in vivo, NMRI mice
# Protocol: Animals were pretreated with reserpine (10 mg/kg i.p.) and alpha-methylpara-tyrosine (500 mg/kg i.p.) 18 and 4 hours before the experiment, respectively, and were then treated with various i.p. doses of OSU6162, expressed in […], or saline (“ctr”). Immediately following injection the animals were placed in individual cages and video-taped from above for 60 min. Shown are the distances moved, means and S.E.M. N=5-6 per treatment group. Statistics: *P<0.05, **p<0.01, as compared with the controls.
# In these experiments we used male NMRI mice weighting 25-30 g at the time of testing. The mice were pretreated with reserpine, 10 mg/kg i.p., 18 hours, and alpha-methyl-para-tyrosine HCl, 500 mg/kg i.p. 2 hours, respectively, before the experiment.
# The actual experiment was started by injecting either OSU6162 in doses of 5, 25 or 125 μmol/kg i.p.or placebo (a physiological saline solution). Each dosage group consisted of 5-6 mice. Immediately after injection the mice were placed in individual cages and video taped from above for 60 min. Various aspects of motility were analysed from the video tapes.
# Statistical calculations were performed with the non parametric Mann-Whitney U-test, and asterisks in the graph indicate significant differences compared to control group (*p<0.05; **p<0.01).
# [6] = system: rats; assay: Preliminary experiment: rats in large illuminated arenas during daytime; format: in vivo
# Text: As to the issues of illumination and daylight cycle, behavioural inhibition has been observed in ultraviolet (Rung et al., 2005b) or infrared light (current study) during the dark hours of the rats' diurnal rhythm. Based on how the light is perceived by humans, we presume that the ultraviolet and infrared light used in these studies is perceived by the rats as dim light and darkness respectively.
# [7] = biological target: dopamine D2 receptors (Homo sapiens, UniProt P14416); settings: in-vitro binding, Sonesson et al. 1994; cited from earlier work
# Sequence of dopamine D2 receptors (P14416 whole entry): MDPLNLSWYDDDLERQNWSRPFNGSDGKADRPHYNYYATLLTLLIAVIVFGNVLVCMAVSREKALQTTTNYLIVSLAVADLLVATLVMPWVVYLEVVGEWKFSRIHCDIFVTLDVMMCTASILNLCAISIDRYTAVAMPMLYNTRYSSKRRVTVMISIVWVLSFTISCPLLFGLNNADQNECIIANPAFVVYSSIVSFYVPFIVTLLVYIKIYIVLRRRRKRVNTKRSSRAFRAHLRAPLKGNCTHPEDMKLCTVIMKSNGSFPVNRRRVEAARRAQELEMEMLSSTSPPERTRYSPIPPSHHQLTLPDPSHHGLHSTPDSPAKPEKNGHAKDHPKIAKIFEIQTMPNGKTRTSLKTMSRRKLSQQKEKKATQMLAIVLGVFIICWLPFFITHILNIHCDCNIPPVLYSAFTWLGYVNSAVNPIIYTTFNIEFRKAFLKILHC
# [8] = clinical dosages of at least 25 mg per day; cited from earlier work
# [9] = system: amphetamine-induced hyperactivity in rats; settings: Natesan et al., 2006; cited from earlier work
# T1 sequence (P14416 whole entry): as above
compound,measurement,setting,value
"CCCN1CCC[C@@H](c2cccc(S(C)(=O)=O)c2)C1 [(−)-OSU6162, S-(−)-3-[3-methylsulfonylphenyl]-1-propylpiperidine]",increase of the incorporation of GTPgammaS^35,"[1]; absence of dopamine, 100 to 10,000 nM (−)OSU6162",8 to 11%
same,effect on GTPgammaS^35 incorporation,"[1]; dopamine 10 to 100 nM, (−)-OSU6162 10 to 100 nM",caused an increased incorporation of GTPgammaS^35
same,effect on GTPgammaS^35 incorporation,"[1]; dopamine 10 to 100 nM, (−)-OSU6162 1,000 to 10,000 nM",this increase was no longer seen
same,effect on GTPgammaS^35 incorporation,"[1]; dopamine 1,000 and 10,000 nM, varied (−)-OSU6162 levels","similar, though flatter activity curves"
same,motor activity (velocity),[2],dose-dependent and statistically significant reduction of motor activity
same,dose at which a significant effect on motor activity shows up,[3]; later experiment with lower doses 6.25 and 12.5 μmol/kg,12.5 µmol/kg
same,motor activity (accumulated unrepeated beam breaks),[3]; t=0-30 min after injection,marked locomotor activation
same,motor activity (accumulated unrepeated beam breaks),[3]; t=30-60 min after injection,the three highest doses significantly stimulated locomotion
same,effect on apomorphine-induced hypomotility,[4]; OSU6162 120 μmol/kg i.p.,seemed to cause a marked drop in motor activity
same,effect on apomorphine-induced hypomotility,"[4]; test drug i.p. 30 min prior, dose range per drug",modest but apparently dose dependent reversal of apomorphineinduced hypomotility up to a dose of 60 μmol/kg
same,"motility (distance moved, 60 min)",[5]; OSU6162 5 μmol/kg i.p.,showed only minimal signs of motility
same,"motility (distance moved, 60 min)","[5]; OSU6162 two higher doses (25, 125 μmol/kg i.p.)","significant, dose dependent increase in motility"
same,behavioural response,"[6]; daytime, large illuminated arenas, not habituated",behavioural inhibition similar to that observed in darkness
same,behavioural response,[6]; rats habituated to large illuminated arenas,did not respond with any change in activity
same,Ki,[7],in the micromolar region
same,cardiac adverse effects,[8],"QTc values higher than normal, cardiac arrhythmia, or heart rhythm abnormalities, such as torsades de pointes"
same,effect on amphetamine-induced hyperactivity,[9],reverse amphetamine-induced hyperactivity
